# Test results: patent US5003044A, “Peptide inhibitors of motor neuron attachment to s-laminin” (Washington University, priority 1989, dated 1991)
# No end group written: not given here.
# Tests used:
# [1] = tested on: adhesion of ciliary neurons to pET-RK36 s-laminin fragment; conditions: for Inhibition of neuronal adhesion to pET-RK36 / s-laminin (in words): concentration not given
# [2] = tested on: ciliary ganglion neurons; assay: Cell attachment assay on immobilized substrata, ciliary ganglion neurons; type: cell-based, chick
# Procedure: (§1) Substrates were immobilized to tissue culture dishes as described by Lagenaur and Lemmon, Proc. Natl. Acad. Sci. USA 84, 7753-7757 (1987). Briefly, nitrocellulose (BA85; Schleicher and Schuell, Keene, N.H.) was dissolved in methanol (1 cm^2 /ml), applied to tissue culture wells (90 µl per 16 mm diameter well) and allowed to dry. Drops (1.5-3 μl) of substrates in solution were applied and allowed to bind for 20 min. after which the drops were aspirated. Nonspecific binding sites on the nitrocellulose were then blocked by incubating wells with the following series of solutions: 10 mg/ml bovine serum albumin (BSA; Sigma) in PBS for ~1 min; 30 mg/ml BSA in PBS for 2-3 hr; Earles' Minimum Essential Medium (MEM) containing 2% fetal bovine serum and 25 mM HEPES, pH 7.4, for 5 min; PBS, twice briefly; and Earles' MEM containing 1 mg/ml BSA and 25 mM HEPES, pH 7.4, for 30 min at 37° C. in a humidified chamber containing 7% CO2. At this point, neurons were added, with or without synthetic peptides, and incubated for 2 hr at 37° C. Finally, the wells were washed twice with PBS pre-warmed to 37° and adherent cells were fixed in place with 2% paraformaldehyde and 2% glutaraldehyde in PBS.
# Neurons were dissociated from chick ciliary ganglia as previously described by Nishi and Berg, Proc. Natl. Acad. Sci. USA 74, 5171-5175 (1977);
# Covault et al., J. Cell Biol. 105, 2479-2488 (1987). Each well received ~5000 neurons, which corresponds to ~1 E8 ganglia, ~1.5 E10 ganglia, and ~2 E13 ganglia (E8, E10 and E13 are stages of development of the embryonic chick) [neuronal death is occurring over this time course; Landmessen and Pilar, J. Physiol. 241, 715-736 (1974)]. Chick dorsal root ganglia and optic tecta were dissociated in the same manner; each well received cells from 4-5 dorsal root ganglia or 0.25 optic tecta. For B35 and B104 cell lines, each well received 20,000 cells. For PC12 cells, each well received 5000 cells. In some tests, PC12 cells were grown with 50 ng/ml nerve growth factor (NGF) for 3-6 days before use. All cells were suspended in Earles' MEM containing 1 mg/ml BSA and 25 mM HEPES, pH 7.4, for addition to tissue culture wells.
# Cell attachment assays were performed as described hereinbefore.
# [3] = tested on: dorsal root ganglion neurons; assay: Cell attachment assay on immobilized substrata, dorsal root ganglion neurons; type: cell-based, chick; conditions: sensory neurons (cell type implied by context)
# Procedure: as §1, with “Finally, the wells were washed twice with PBS pre-warmed to 37° and adherent cells were fixed in place with 2% paraformaldehyde and 2% glutaraldehyde in PBS.” left out
# (§2) Ciliary neurons were selected for initial tests because many of these neurons normally form neuromuscular junctions on striated muscle fibers in vivo [Pilar et al., J. Neurophys. […] To extend these tests, it was determined whether neurons of other types also adhered to the s-laminin fragments. […]
# [4] = tested on: tectal neurons; assay: Cell attachment assay on immobilized substrata, tectal neurons; type: cell-based, chick; conditions: 2 hr
# Procedure: as §1, with “Finally, the wells were washed twice with PBS pre-warmed to 37° and adherent cells were fixed in place with 2% paraformaldehyde and 2% glutaraldehyde in PBS.” left out
# as §2
# [5] = tested on: neurons and neuron-like cells; assay: Cell attachment assay, each cell type of Table 1; type: cell-based; conditions: for each cell type, Table 1 footnote
# Procedure: as §1
# Covault et al., J. Cell Biol. 105, 2479-2488 (1987). […]
substance,measurement,setting,value
AEKQLR [Peptide M511],Inhibition of neuronal adhesion to pET-RK36 / s-laminin (in words),[1],inhibiting activity is not shown
AEKQLREQVGD [Peptide M51],IC50,[1],10 to 20 µM
same,IC50 for inhibition of neuronal adhesion to pET-RK36,[1],~ 20 μg/ml
AEKQLREQVGDQYQTVRALAE [Peptide M5],IC50,[1],10 to 20 µM
KQLREQ [Peptide M512],Inhibition of neuronal adhesion to pET-RK36 / s-laminin (in words),[1],inhibitory
LREQVG [Peptide M513],Inhibition of neuronal adhesion to pET-RK36 / s-laminin (in words),[1],inhibitory
laminin,Applied ciliary neurons adhered,"[2]; 2 hour assay, optimal concentration of substrate on nitrocellulose",30-40%
same,Adhesion of ciliary neurons to substrate (FIG. 3),"[2]; 2 hr, laminin 100 μg/ml, pET-RK36 10 μg/ml",adhere well
same,Optimal concentration in molar terms,"[2]; Mr ~900,000 laminin, ~20,000 s-laminin fragment",~ 0.5 μM
same,Concentration of applied solution giving maximal adhesion,[2]; ciliary neurons,~ 500 μg/ml
same,Lowest concentration in solution with significant adhesion,[2]; ciliary neurons,20 µg/mL
same,Fold more cells adhered to laminin than to s-laminin,[3],at least 10 fold
same,Adhesion of tectal cells to substrate (FIG. 3),[4],adhere well
same,Cells applied that adhered to laminin,[5],20
poly-lysine,More neurons adhered to poly-lysine than to either laminin or s-laminin,"[2]; ciliary neurons, each stage E8-E13",30-50%
β-galactosidase: pure β-galactosidase,Attachment of ciliary neurons to recombinant proteins / bacterial extracts (FIG. 2),[2]; control for vector-encoded sequences,no significant attachment
